Test results as given in ChEMBL document CHEMBL5500324, “The potential of marine-derived piperazine alkaloids: Sources, structures and bioactivities” (Eur J Med Chem, 2024).
pIC50: −log10 of the molar value. Converted amounts (≈) assume the structure as drawn.

Columns and labels:
[1] = Cytotoxicity against human A2780cis cells assessed as inhibition of cell growth incubated for 72 hrs by SRB assay; format: functional, cell-based
P388 [2] = assay: Cytotoxicity against mouse P388 cells assessed as reduction in cell viability by SRB assay; format: functional, cell-based
HL-60 [3] = assay: Cytotoxicity against human HL-60 cells assessed as reduction in cell viability measured for 24 hrs by MTT assay; format: functional, cell-based; conditions: HL-60, 24 h
SK-MEL-28 = assay: Cytotoxicity against human SK-MEL-28 cells assessed as inhibition of cell growth; format: functional, cell-based
P388 [4] = assay: Cytotoxicity against mouse P388 cells assessed as inhibition of cell growth; format: functional, cell-based
A549 [5] = assay: Cytotoxicity against human A549 cells assessed as reduction in cell viability measured after 48 hrs by MTT assay; format: functional, cell-based; conditions: A549, 48 h
A549 [6] = assay: Cytotoxicity against human A549 cells assessed as inhibition of cell growth; format: functional, cell-based
HT-29 [7] = assay: Cytotoxicity against human HT-29 cells assessed as inhibition of cell growth; format: functional, cell-based
HCT-116 = assay: Cytotoxicity against human HCT-116 cells assessed as inhibition of cell growth incubated for 72 hrs by SRB assay; format: functional, cell-based; conditions: HCT-116, 72 h
[8] = Cytotoxicity against Sf9 cells assessed as inhibition of cell growth measured after 24 hrs by MTT assay; format: toxicity, cell-based; conditions: Spodoptera frugiperda
HL-60 [9] = assay: Cytotoxicity against human HL-60 cells assessed as reduction in cell growth incubated for 72 hrs by SRB assay; format: functional, cell-based; conditions: HL-60, 72 h
A549 [10] = assay: Cytotoxicity against human A549 cells assessed as reduction in cell growth incubated for 72 hrs by SRB assay; format: functional, cell-based; conditions: A549, 72 h
Bel-7402 = assay: Cytotoxicity against human Bel-7402 cells assessed as reduction in cell growth incubated for 72 hrs by SRB assay; format: functional, cell-based; conditions: Bel-7402, 72 h
HT-29 [11] = assay: Antiproliferative activity against human HT-29 cells assessed as reduction in cell viability incubated for 72 hrs by SRB assay; format: functional, cell-based; conditions: HT-29, 72 h
A549 [12] = assay: Cytotoxicity against human A549 cells assessed as inhibition of cell growth incubated for 48 hrs by MTT assay; format: functional, cell-based; conditions: A549, 48 h
MDA-MB-231 [13] = assay: Antiproliferative activity against human MDA-MB-231 cells assessed as reduction in cell viability incubated for 72 hrs by SRB assay; format: functional, cell-based; conditions: MDA-MB-231, 72 h
A549 [14] = assay: Antiproliferative activity against human A549 cells assessed as reduction in cell viability incubated for 72 hrs by SRB assay; format: functional, cell-based; conditions: A549, 72 h
HGC-27 = assay: Cytotoxicity against human HGC-27 cells assessed as reduction in cell viability; format: functional, cell-based
NCI-H460 = assay: Cytotoxicity against human NCI-H460 cells assessed as reduction in cell growth by MTT assay; format: functional, cell-based
P388 [15] = assay: Cytotoxicity against mouse P388 cells assessed as reduction in cell growth; format: functional; conditions: read-out: ED50 (the source's name)
HepG2 [16] = assay: Cytotoxicity against human HepG2 cells assessed as reduction in cell growth by MTT assay; format: functional, cell-based
MCF7 = assay: Cytotoxicity against human MCF7 cells assessed as reduction in cell growth incubated for 48 hrs by MTT assay; format: functional, cell-based; conditions: MCF7, 48 h
HL-60 [17] = assay: Cytotoxicity against human HL-60 cells assessed as reduction in cell growth measured for 72 hrs by MTT assay; format: functional, cell-based; conditions: HL-60, 72 h
L1210 = assay: Cytotoxicity against mouse L1210 cells assessed as reduction in cell growth measured after 72 hrs by MTT assay; format: functional, cell-based; conditions: L1210, 72 h
P388 [18] = assay: Cytotoxicity against mouse P388 cells assessed as inhibition of cell growth incubated for 72 hrs by MTT assay; format: functional, cell-based; conditions: P388, 72 h
HL-60 [19] = assay: Cytotoxicity against human HL-60 cells assessed as reduction in cell viability; format: functional, cell-based
HeLa [20] = assay: Cytotoxicity against human HeLa cells assessed as reduction in cell viability by MTT assay; format: functional, cell-based
A-375 = assay: Cytotoxicity against human A-375 cells assessed as reduction in cell viability by CCK-8 assay; format: functional, cell-based
HepG2 [21] = assay: Cytotoxicity against human HepG2 cells assessed as reduction in cell growth incubated for 48 hrs by CCK-8 assay; format: functional, cell-based; conditions: HepG2, 48 h
MDA-MB-231 [22] = assay: Cytotoxicity against human MDA-MB-231 cells assessed as reduction in cell growth incubated for 48 hrs by CCK-8 assay; format: functional, cell-based; conditions: MDA-MB-231, 48 h
MKN-1 [23] = assay: Antiproliferative activity against human MKN-1 cells assessed as reduction in cell viability measured for 48 hrs by CCK-8 assay; format: functional, cell-based; conditions: MKN-1, 48 h
HeLa [24] = assay: Cytotoxicity against human HeLa cells assessed as reduction in cell growth measured after 72 hrs by MTT assay; format: functional, cell-based
K562 = assay: Cytotoxicity against human K562 cells assessed as reduction in cell viability by MTT assay; format: functional, cell-based
HeLa [25] = assay: Cytotoxicity against human HeLa cells assessed as reduction in cell growth measured after 24 hrs by MTT assay; format: functional, cell-based
MKN-1 [26] = assay: Antiproliferative activity against human MKN-1 cells assessed as inhibition of cell proliferation by CCK8 assay; format: functional, cell-based
MKN-1 [27] = assay: Cytotoxicity against human MKN-1 cells assessed as reduction in cell viability; format: functional, cell-based

Work on O=C1N2[C@H]3C(=CC=C[C@@H]3O)C[C@]23SS[C@]12C[C@H]1[C@@H]([C@@H](O)C=C[C@@H]1O)N2C3=O yielded a pIC50 [1] of 6.18.
Work on C=CC(C)(C)c1[nH]c2ccccc2c1/C=C1\NC(=O)[C@]2(C[C@H](C)C=C[C@@H]2CCc2c(O)cc(CC=C(C)C)c(O)c2C=O)NC1=O yielded a pIC50 (P388 [2]) of 5.74.
CC1(C)C=Cc2c(ccc3c2NC(=O)C(C)(C)/C=C\N2C(=O)C4=CCCN4C(=O)[C@@H]2CC3=O)O1 showed a pIC50 (HL-60 [3]) of 5.06.
With COc1c(C)cc2c(c1O)[C@H]1[C@@H]3[C@@H]4SCC(=O)C(=O)OC[C@@H](c5c6c(c(C)c(OC(C)=O)c54)OCO6)N3[C@@H](O)[C@@H](C2)N1C the IC50 (SK-MEL-28) was 0.025 µg/mL (≈ 0.0408 µM), the pIC50 (P388 [4]) was 5.00 and the IC50 (A549 [5]) was 0.01 µg/mL (≈ 0.0163 µM). The IC50 (A549 [6]) was 0.02 µg/mL (≈ 0.0326 µM) and the IC50 (HT-29 [7]) was 0.025 µg/mL (≈ 0.0408 µM).
O=C1N[C@@](O)(Cc2ccccc2)C(=O)N2CCC[C@@H]12 showed a pIC50 (HCT-116) of 4.64.
CS[C@@]1(Cc2ccccc2)NC(=O)[C@](O)(Cc2ccccc2)NC1=O gave an IC50 at 24 h [8] of 0.7 µM.
With C=CC(C)(C)[C@@]12C[C@@]3(OC)C(=O)N/C(=C/c4cn(C(C)(C)CC(C)=O)cn4)C(=O)N3[C@]1(C)Nc1ccccc12 the pIC50 (HL-60 [9]) was 4.44, the pIC50 (A549 [10]) was 4.37 and the pIC50 (Bel-7402) was under 4.30.
Work on CN1C[C@@H](c2c[nH]c3cc(Br)ccc23)N(C)C[C@@H]1c1c[nH]c2ccccc12 yielded a pIC50 (HT-29 [11]) of 5.32, a pIC50 (A549 [12]) of 5.39 and a pIC50 (MDA-MB-231 [13]) of 5.12. It also gave a pIC50 (A549 [14]) of 5.33.
C=CC(C)(C)c1[nH]c2ccccc2c1/C=C1\NC(=O)[C@@H]2CCCN2C1=O showed a pIC50 (HGC-27) of 5.34.
With CN1C(=O)[C@@]23SS[C@]1(C)C(=O)N2[C@H]1Nc2ccccc2[C@@]1(c1c[nH]c2ccccc12)[C@@H]3O the pIC50 (NCI-H460) was 6.64, the EC50 (P388 [15]) was 2.4 µg/mL (≈ 5.17 µM) and the pIC50 (HepG2 [16]) was 6.28. The pIC50 (MCF7) was 6.64.
Compound CSC12NC(=O)C(Cc3ccc(OCC=C(C)C)cc3)(NC1=O)[C@H]1C(=O)O[C@H](C)C/C=C/C(=O)O[C@H](C)C[C@@H](O)C(=O)[C@H]12 (stereo partly specified) has a pIC50 (HL-60 [17]) of 5.66, a pIC50 (L1210) of 4.93 and a pIC50 (P388 [18]) of 5.17.
COc1ccc2c(c1)N[C@@]1(C2=O)[C@H](C=C(C)C)N2C(=O)[C@]3(O)CCCN3C(=O)[C@]2(O)[C@H]1O gave a pIC50 (HL-60 [19]) of 5.22.
In the case of CS[C@@H]1C(=O)N[C@](Cc2ccc(OCC=C(C)C)cc2)(SC)C(=O)N1C, the pIC50 (HeLa [20]) was 5.38.
For CC(C)C[C@@H]1NC(=O)[C@@H]2C[C@@]3([C@@]45C[C@H]6C(=O)N[C@@H](Cc7ccccc7)C(=O)N6[C@@H]4Nc4ccccc45)c4ccccc4N[C@H]3N2C1=O, the pIC50 (A-375) was 4.99.
Compound COc1ccc2c(c1)NC(=O)[C@]21[C@H](C=C(C)C)N2C(=O)[C@@H]3CCCN3C(=O)[C@]2(O)[C@H]1O has a pIC50 (HepG2 [21]) of 4.85 and a pIC50 (MDA-MB-231 [22]) of 4.45.
Compound C=CC(C)(C)c1[nH]c2cc(CC=C(C)C)ccc2c1/C=C1\NC(=O)[C@H](C)NC1=O has a pIC50 (MKN-1 [23]) of 5.34.
In the case of CC(C)[C@H]1C(=O)N2[C@@H]3N4c5ccccc5[C@]3(C[C@@H]3[C@@]5(C)CCCC(C)(C)[C@@H]5CC[C@]34C)C[C@H]2C(=O)N1C, the pIC50 (HeLa [24]) was 4.78.
For CS[C@@H]1C(=O)N(C)/C(=C/c2ccc(OCC=C(C)C)cc2)C(=O)N1C, the pIC50 (K562) was 4.90.
In the case of O=C1N[C@@H](C[C@@]2(O)c3ccccc3N3C(=O)C[C@@H](c4ccccc4)N[C@H]32)C(=O)N[C@H]1Cc1ccccc1, the IC50 (HeLa [25]) was 8.4 µg/mL (≈ 16.9 µM).
For C=CC(C)(C)c1[nH]c2ccccc2c1/C=c1\[nH]c(=O)c(=C)[nH]c1=O [NEOECHINULIN B], the pIC50 (MKN-1 [26]) was 4.68 and the pIC50 (MKN-1 [27]) was 5.34.
